{"source": "patent US6358943B1", "about": "“N-substituted indolines as estrogenic agents” (American Home Products Corporation, priority 1999, dated 2002)", "target": "T1, estrogen receptor (ER) (Homo sapiens, UniProt P03372)", "T1 construct": "expressed in transfected cells; host or cells: CHO cells (cytosol)", "T1 sequence (P03372 1-595)": "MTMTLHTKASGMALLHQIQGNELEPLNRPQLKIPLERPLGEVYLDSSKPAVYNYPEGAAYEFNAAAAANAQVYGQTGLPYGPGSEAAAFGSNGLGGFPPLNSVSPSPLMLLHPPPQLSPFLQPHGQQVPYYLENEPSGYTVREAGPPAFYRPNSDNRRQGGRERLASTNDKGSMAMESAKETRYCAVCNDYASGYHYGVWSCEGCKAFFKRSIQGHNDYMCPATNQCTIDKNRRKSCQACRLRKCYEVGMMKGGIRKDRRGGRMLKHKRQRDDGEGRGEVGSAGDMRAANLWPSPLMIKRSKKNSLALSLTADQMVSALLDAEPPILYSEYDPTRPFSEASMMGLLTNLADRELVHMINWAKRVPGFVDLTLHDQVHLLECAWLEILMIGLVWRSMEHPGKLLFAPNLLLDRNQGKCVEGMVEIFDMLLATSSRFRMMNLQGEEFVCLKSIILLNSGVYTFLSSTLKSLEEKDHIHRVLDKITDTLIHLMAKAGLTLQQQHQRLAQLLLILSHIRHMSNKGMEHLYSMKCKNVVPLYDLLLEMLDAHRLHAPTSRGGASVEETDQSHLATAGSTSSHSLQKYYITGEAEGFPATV", "assay": "Receptor Binding Assay: competition with [3H]17β-estradiol, cytosol of CHO cells overexpressing the estrogen receptor", "details": "0.8 nM [3H]17β-estradiol, 12 competitor concentrations, room temperature 2.5 h, CHO cell cytosol", "data": [{"smiles": "CC1(C)c2cc(O)ccc2N(Cc2ccc(OCCN3CCCCCC3)cc2)C1c1ccc(O)cc1", "note": "(stereo not shown) [Example No. 11, 1-[4-(2-Azepan-1-yl-ethoxy)-benzyl]-2-(4-hydroxy-phenyl)-3,3-dimethyl-2,3-dihydro-1H-indol-5-ol]", "values": [{"measurement": "IC50", "result": 350, "unit": "nM"}]}]}
